Data taken from patent US12377035B2, “Peptides for inhibiting cholinergic calcitonin gene-related peptide (CGRP) and acetylcholine (ACH) release or inhibiting sensitization-mediated by TRPV1-mediated excitability in sensory neurons and methods of use thereof” (AZIENDE CHIMICHE RIUNITE ANGELINI FRANCESCO—A.C.R.A.F. …, priority 2018, dated 2025).
Residues, ends and D or L forms follow the SMILES beside them. *: point of attachment. Palmitoyl = CCCCCCCCCCCCCCCC(=O)*

Experiments:
Type in all cases: cell-based
[1] = tested on: CGRP induced-release on peptidergic sensory neurons (dorsal root ganglia); assay: Inhibition of capsaicin-induced CGRP release on cultured sensory neurons (CGRP EIA); conditions: 1 hour, 1 μM capsaicin 10 min
Protocol: The induction of the release of calcitonin-gene related peptide (CGRP) with capsaicin enables direct measurement of neuronal exocytosis (Meng J. et al., J. Cell. Sci. (2007) 15; 120(Pt 16):2864-74, and Meng J. et al., Mol. Neurobiol. (2014); 50(2):574-88).
The tested peptides were evaluated by measuring their capability of inhibiting CGRP induced-release on peptidergic sensory neurons. Dorsal root ganglia were seeded (50.000 cells/well) in a 96-well plate previously coated with poly-L-lysine and laminin. After 48 hours seeding, cells were incubated with Hank's Balanced salt solution containing peptides of invention at 20, 50 or 100 μM for 1 hour. Next, cells were stimulated for 10 min with 1 μM capsaicin at 37° C. Then, CGRP content was determined in supernatants using colorimetric based CGRP EIA (Spi-Bio Inc) following manufacturer's instructions. Absorbance measurements (405 nm) were standardized with regard to the maximum signal detected with capsaicin stimulation in vehicle treated cells. Inhibition values of CGRP release were calculated as percentages by considering maximum signal to capsaicin-induced release and minimum as non-stimulated cells. Table D details inhibition values of […] obtained for the peptides of invention.

[2] = tested on: acetylcholine release, human neuroblastoma cell line differentiated to cholinergic neuronal phenotype; assay: Inhibition of KCl-induced acetylcholine release in a neuroblastoma cell line (Amplex Red); conditions: for % Ach release inhibition: 50 mM KCl
Protocol: To determine the compound of the invention effects on acetylcholine release, a human neuroblastoma cell line (50.000 cells/well) was used. Cells were differentiated to cholinergic neuronal phenotype for 4 days. Then, cells were pre-incubated for 60 minutes with the compounds (between 0.1 and 100 μM) as acetyl- or palmitoyl-form and conjugated with trifluoroacetate (TFA) or acetate salt. Afterwards, acetylcholine release was induced by membrane depolarization evoked by 15 minutes incubation with 50 mM KCl. Acetylcholine level in supernatants was quantified by using Amplex® Red Acetylcholine Assay Kit (Thermofisher) following manufacturer's instructions. […] Fluorescence (Ex 530 nm/Em 590 nm) was measured in FluorStar equipment. Acetylcholine content was normalized to the total protein content using BCA assay (Pierce) following manufacturer's instructions. Fluorescence measurements were normalized to the maximum signal detected with KCl stimulation in vehicle treated cells. Vesicle exocytosis disruption by the compounds of the invention lead to a decrease of acetylcholine release (Table E).

[3] = tested on: human dermal fibroblasts (HDFa); assay: MTT cell viability assay on dermal fibroblasts; conditions: for % inhibition cell viability: HDFa, 24 hours; for effect on cell viability (in words): dermal fibroblast, up to 200 μM
Protocol: (§1) This example evaluated effects of the peptides of invention on human epidermal keratinocytes and dermal fibroblasts. Cell viability was determined with the 3-(4,5-dimethyl-2-thiazolyl)-2,5-diphenyl-2H-tetrazolium bromide (MTT) assay. The MTT assay is a colorimetric reaction based on the capacity of the mitochondrial dehydrogenase enzyme to break and transform the tetrazolium rings of MTT. Epidermal keratinocytes (HEKa) were seeded in a previously coated 96 well-plate at 50-60% confluence in 100 μL of supplemented corresponding medium. Dermal fibroblasts (HDFa) were seeded in a 96 well-plate at 70% confluence in 100 μL supplemented medium. For both cell lines, 24 hours after seeding, medium was replaced by fresh supplemented medium containing peptides dissolved at concentration range between 0.1 and 200 μM. All test substances were incubated for 24 hours at 37° C. and 5% CO2. Afterwards, medium was replaced by 0.5 mg/ml of MTT solution for 4 hours in complete medium. Then, medium was carefully removed and 150 μL/well of DMSO were added to solubilize formazan crystals. Plate was protected from light, shaken for 60 seconds and optical density was measured at 570 nm with a reference filter of 620 nm. Table F details effects of peptides of invention on keratinocytes and fibroblasts cell viability expressed as percentage of inhibition.

[4] = tested on: human epidermal keratinocytes (HEKa); assay: MTT cell viability assay on epidermal keratinocytes; conditions: for % inhibition cell viability: HEKa, 24 hours; for effect on cell viability (in words): human epidermal keratinocytes, up to 200 μM
Protocol: as §1

Compound	% CGRP release inhibition ([1]; peptide 20 μM) [%]	% CGRP release inhibition ([1]; peptide 50 μM) [%]	% Ach release inhibition ([2]; TFA salt, 5 μM) [%]	% Ach release inhibition ([2]; TFA salt, 10 μM) [%]	% Ach release inhibition ([2]; TFA salt, 50 μM) [%]	% inhibition cell viability ([3]; 0.1 μM) [%]	% inhibition cell viability ([3]; 0.5 μM) [%]	% inhibition cell viability ([3]; 1 μM) [%]	% inhibition cell viability ([3]; 5 μM) [%]	% inhibition cell viability ([3]; 10 μM) [%]	% inhibition cell viability ([3]; 50 μM) [%]	% inhibition cell viability ([4]; 0.1 μM) [%]	% inhibition cell viability ([4]; 0.5 μM) [%]	% inhibition cell viability ([4]; 1 μM) [%]	% inhibition cell viability ([4]; 5 μM) [%]	% inhibition cell viability ([4]; 10 μM) [%]	% inhibition cell viability ([4]; 50 μM) [%]	% Ach release inhibition ([2]; Acetate salt, 0.1 μM)	% Ach release inhibition ([2]; Acetate salt, 1 μM) [%]	% Ach release inhibition ([2]; Acetate salt, 10 μM) [%]	other results
CCCCCCCCCCCCCCCC(=O)N[C@@H](CCSC)C(=O)N[C@@H](CCC(N)=O)C(=O)N[C@H](C(=O)N[C@@H](Cc1c[nH]c2ccccc12)C(=O)N[C@@H](CC(C)C)C(=O)N[C@@H](CCCNC(=N)N)C(=O)N[C@@H](CCSC)C(=O)N[C@@H](Cc1c[nH]c2ccccc12)C(=O)N[C@H](C(=O)N[C@@H](CC(=O)O)C(=O)N[C@@H](Cc1ccc(O)cc1)C(=O)N[C@@H](CCCNC(=N)N)C(=O)N[C@@H](C)C(=O)N[C@H](C(N)=O)[C@@H](C)O)[C@@H](C)CC)C(C)C [SEQ ID NO: 2 palmitoyl, MQVWLRMWIDYRAT] (Palmitoyl-MQVWLRMWIDYRAT-NH2)	35.5	53.9	−46.1	−35.1	20.6	30.8	42.9	45.8	47.3	47.1	35.3	12.1	20.9	25.6	36.9	36.5	32.5				
CCCCCCCCCCCCCCCC(=O)N[C@@H](CCCNC(=N)N)C(=O)N[C@@H](CCCNC(=N)N)C(=O)N[C@H](C(=O)N[C@H](C(=O)N[C@@H](CC(C)C)C(=O)N[C@H](C(=O)N[C@@H](CC(N)=O)C(=O)N[C@@H](CC(N)=O)C(=O)N[C@H](C(=O)N[C@@H](CC(C)C)C(N)=O)[C@@H](C)CC)C(C)C)C(C)C)C(C)C [SEQ ID NO: 3 palmitoyl, RRVVLVNNIL] (Palmitoyl-RRVVLVNNIL-NH2)	34.0	74.8	75.4	81.8	82.8	6.0	15.5	8.7	25.7	27.2	24.3	−3.8	−0.9	11.7	9.9	22.4	24.8	57.0%	92.5	86.7	activity on ACh release (in words) ([2]; lowest concentration tested 0.1 μM): active; effect on fibroblast viability (in words) ([3]; at 1 µM or below): did not modify keratinocyte and fibroblast viability; effect on keratinocyte viability (in words) ([4]; at 1 µM or below): did not modify keratinocyte and fibroblast viability
CCCCCCCCCCCCCCCC(=O)N[C@@H](CC(C)C)C(=O)N[C@@H](CCCNC(=N)N)C(=O)N[C@H](C(=O)N[C@@H](CCC(N)=O)C(=O)N[C@@H](CCSC)C(=O)N[C@H](C(=O)N[C@@H](CC(N)=O)C(=O)N[C@@H](CCSC)C(=O)N[C@@H](Cc1ccccc1)C(=O)N[C@@H](CC(C)C)C(N)=O)C(C)C)C(C)C [SEQ ID NO: 4 palmitoyl, LRVQMVNMFL] (Palmitoyl-LRVQMVNMFL-NH2)			26.4		83.0	15.2	26.9	34.2	42.6	40.9	37.7	−6.2	1.0	−7.6	7.0	18.0	34.2				effect on keratinocyte viability (in words) ([4]; assessed below 50 μM): did not modify keratinocyte viability
CCCCCCCCCCCCCCCC(=O)N[C@@H](Cc1c[nH]c2ccccc12)C(=O)N[C@@H](CCC(=O)O)C(=O)N[C@@H](CCC(N)=O)C(=O)N[C@@H](CCC(=O)O)C(=O)N[C@@H](Cc1ccccc1)C(=O)N[C@@H](CC(C)C)C(=O)N[C@@H](CCCNC(=N)N)C(=O)N[C@@H](CCCNC(=N)N)C(N)=O [SEQ ID NO: 5 palmitoyl, WEQEFLRR] (Palmitoyl-WEQEFLRR-NH2)			25.1	24.7	17.9			−0.2	10.3	7.6	18.0			−2.9	−5.5	−6.3	−24.3				% Ach release inhibition ([2]; TFA salt, 0.1 μM): 16.4%; % Ach release inhibition ([2]; TFA salt, 1 μM): 16.1%
Ac-HYWRELQYR-NH2 [SEQ ID NO: 1 acetyl, HYWRELQYR]	10.1			87.9	33.6			0.2	9.7	33	3.9			−1.4	8.8	1.7	7.4		27.9	55.9	% CGRP release inhibition ([1]; peptide 100 μM): 39.1%; % Ach release inhibition ([2]; TFA salt, 100 μM): 65.9%; % inhibition cell viability ([3]; 100 μM): 6.8%; % inhibition cell viability ([3]; 200 μM): 2.9%; effect on cell viability (in words) [3]: did not modify cell viability; % inhibition cell viability ([4]; 100 μM): 6.2%; % inhibition cell viability ([4]; 200 μM): 9.5%; effect on cell viability (in words) [4]: did not modify cell viability
Ac-WEQEFLRR-NH2 [SEQ ID NO: 5 acetyl, WEQEFLRR]				52.8	51.5			9.3	10.0	12.1	10.0			−5.7	0.8	4.2	4.3	around 40%			% Ach release inhibition ([2]; TFA salt, 0.1 μM): 19.0%; % Ach release inhibition ([2]; TFA salt, 1 μM): 22.0%; % Ach release inhibition ([2]; TFA salt, 100 μM): 81.6%; % inhibition cell viability ([3]; 100 μM): 15.0%; % inhibition cell viability ([3]; 200 μM): 14.7%; effect on cell viability (in words) [3]: did not modify cell viability; % inhibition cell viability ([4]; 100 μM): 10.4%; % inhibition cell viability ([4]; 200 μM): 23.7%; effect on cell viability (in words) [4]: did not modify cell viability
